Source: patent US9320276B2, “N-hetarylmethyl pyrazolylcarboxamides” (BAYER INTELLECTUAL PROPERTY GMBH, priority 2010, dated 2016)

system: not listed separately; assay: logP by HPLC on reversed-phase column (EEC Directive 79/831 Annex V.A8); format: physicochemical; conditions: HPLC on reversed-phase column (C 18), 40° C., 0.1% aqueous formic acid and acetonitrile, linear gradient 10% to 90% acetonitrile
Experimental: In table 1, the logP values were determined in accordance with EEC Directive 79/831 Annex V.A8 by HPLC (High Performance Liquid Chromatography) on a reversed-phase column (C 18), using the method described below: Temperature: 40° C.; Mobile phases: 0.1% aqueous formic acid and acetonitrile; linear gradient from 10% acetonitrile to 90% acetonitrile. Calibration was carried out using unbranched alkan-2-ones (comprising 3 to 16 carbon atoms) with known logP values (determination of the logP values by the retention times using linear interpolation between two successive alkanones). lambda-max-values were determined using UV-spectra from 200 nm to 400 nm and the peak values of the chromatographic signals.

logP | SMILES
2.90 | Cn1nc(C(F)F)c(C(=O)NC2CCCc3sccc32)c1Cl (stereo not drawn) [Example 103]
3.04 | Cn1nc(C(F)F)c(C(=O)N(Cc2cc(-c3ccccc3)no2)C2CC2)c1Cl [Example 112]
2.40 | CN(Cc1cnn(-c2ccccc2)c1)C(=O)c1c(C(F)F)nn(C)c1Cl [Example 108]
2.92 | Cn1nc(C(F)F)c(C(=O)NCc2cc3ccccc3s2)c1Cl [Example 83]
2.45 | CC(C)Oc1ccc(CN(C)C(=O)c2c(C(F)F)nn(C)c2F)cn1 [Example 102]
3.72 | Cn1nc(C(F)F)c(C(=O)N(Cc2cc(C(F)(F)F)nc3ccccc23)C2CC2)c1Cl [Example 160]
2.73 | Cn1nc(C(F)F)c(C(=O)N(Cc2cccs2)C2CC2)c1Cl [Example 31]
2.44 | Cc1ccsc1CN(C)C(=O)c1c(C(F)F)nn(C)c1F [Example 42]
3.57 | Cn1nc(C(F)F)c(C(=O)N(Cc2ccnc3cc(Cl)cc(Cl)c23)C2CC2)c1Cl [Example 162]
3.31 | Cn1nc(C(F)F)c(C(=O)N(Cc2cc(CC(C)(C)C)no2)C2CC2)c1Cl [Example 107]
3.09 | Cn1nc(C(F)F)c(C(=O)N(Cc2cc(Cl)nc3ccccc23)C2CC2)c1Cl [Example 139]
3.39 | CC(C)N(Cc1cnn(-c2ccc(Cl)cc2)c1)C(=O)c1c(C(F)F)nn(C)c1Cl [Example 151]
2.51 | CN(Cc1cc(-c2ccccc2)no1)C(=O)c1c(C(F)F)nn(C)c1F [Example 110]
3.11 | Cc1occc1C1(NC(=O)c2c(C(F)F)nn(C)c2Cl)CCCC1 [Example 23]
2.90 | CCCN(Cc1cccs1)C(=O)c1c(C(F)F)nn(C)c1Cl [Example 29]
3.61 | Cc1ccsc1CN(C(=O)c1c(C(F)F)nn(C)c1Cl)C1CCCC1 [Example 37]
1.98 | CN(Cc1ccc(Cl)nc1)C(=O)c1c(C(F)F)nn(C)c1Cl [Example 62]
1.79 | CCN(Cc1cn(CC)nc1C)C(=O)c1c(C(F)F)nn(C)c1Cl [Example 46]
1.76 | CN(Cc1ccnc(Cl)c1)C(=O)c1c(C(F)F)nn(C)c1F [Example 54]
4.13 | Cn1nc(C(F)F)c(C(=O)N(Cc2cc3ccccc3n2-c2ccccc2)C2CC2)c1Cl [Example 156]
1.90 | CN(Cc1cncc(Cl)c1)C(=O)c1c(C(F)F)nn(C)c1Cl [Example 55]
3.63 | CN(Cc1sc2ccccc2c1Cl)C(=O)c1c(C(F)F)nn(C)c1Cl [Example 141]
1.65 | CC(C)C(c1cncnc1)N(C)C(=O)c1c(C(F)F)nn(C)c1F (stereo not drawn) [Example 20]
3.61 | CC(c1cccc2ccsc12)N(C(=O)c1c(C(F)F)nn(C)c1Cl)C1CC1 (stereo not drawn) [Example 92]
1.87 | CN(Cc1ccco1)C(=O)c1c(C(F)F)nn(C)c1F [Example 1]
1.82 | CCN(Cc1c(C)nn(CC)c1C)C(=O)c1c(C(F)F)nn(C)c1Cl [Example 78]

same assay, conditions: HPLC, reversed-phase column (C 18), 40° C., 0.1% aqueous formic acid and acetonitrile, linear gradient 10% to 90% acetonitrile

logP | SMILES
3.85 | Cc1nc(-c2ccc(Cl)cc2)sc1CN(C(=O)c1c(C(F)F)nn(C)c1F)C1CC1 [Example 167]
3.64 | Cn1nc(C(F)F)c(C(=O)N(Cc2cc(-c3cc(F)c(F)c(F)c3)no2)C2CC2)c1Cl [Example 166]

system: Alternaria solani; assay: in vivo preventive test on Alternaria solani (tomato); conditions: 500 ppm of active ingredient, evaluated 7 days after inoculation
Experimental: Solvent: 49 parts by weight of N,N-dimethylformamide Emulsifier: 1 part by weight of Alkylarylpolyglycolether To produce a suitable preparation of active compound, 1 part by weight of active compound is mixed with the stated amounts of solvent and emulsifier, and the concentrate is diluted with water to the desired concentration. To test for preventive activity, young plants are sprayed with the preparation of active compound at the stated rate of application. One day after this treatment, the plants are inoculated with an aqueous spore suspension of Alternaria solani. The plants remain for one day in an incubation cabinet at approximately 22° C. and a relative atmospheric humidity of 100%. Then the plants are placed in an incubation cabinet at approximately 20° C. and a relative atmospheric humidity of 96%. The test is evaluated 7 days after the inoculation. 0% means an efficacy which corresponds to that of the untreated control while an efficacy of 100% means that no disease is observed.

SMILES | Efficacy
Cc1nc(-c2ccc(Cl)cc2)sc1CN(C(=O)c1c(C(F)F)nn(C)c1F)C1CC1 [Example 167] | 90%
Cn1nc(C(F)F)c(C(=O)NC2CCCc3sccc32)c1Cl (stereo not drawn) [Example 103] | 94%
CN(Cc1cnn(-c2ccccc2)c1)C(=O)c1c(C(F)F)nn(C)c1Cl [Example 108] | 90%
Cn1nc(C(F)F)c(C(=O)NCc2cc3ccccc3s2)c1Cl [Example 83] | 94%
Cc1ccsc1CN(C)C(=O)c1c(C(F)F)nn(C)c1F [Example 42] | 70%
Cc1ccsc1CN(C(=O)c1c(C(F)F)nn(C)c1Cl)C1CCCC1 [Example 37] | 80%

system: Pyrenophora teres; assay: in vivo preventive test on Pyrenophora teres (barley); conditions: 500 ppm of active ingredient, evaluated 7-9 days after inoculation
Experimental: Solvent: 49 parts by weight of N,N-dimethylformamide Emulsifier: 1 part by weight of alkylaryl polyglycol ether To produce a suitable preparation of active compound, 1 part by weight of active compound is mixed with the stated amounts of solvent and emulsifier, and the concentrate is diluted with water to the desired concentration. To test for preventive activity, young plants are sprayed with the preparation of active compound at the stated rate of application. One day after this treatment, the plants are inoculated with an aqueous spore suspension of Pyrenophora teres. The plants remain for 48 hours in an incubation cabinet at 22° C. and a relative atmospheric humidity of 100%. Then the plants are placed in a greenhouse at a temperature of approximately 20° C. and a relative atmospheric humidity of approximately 80%. The test is evaluated 7-9 days after the inoculation. 0% means an efficacy which corresponds to that of the untreated control while an efficacy of 100% means that no disease is observed.

SMILES | Efficacy
Cc1nc(-c2ccc(Cl)cc2)sc1CN(C(=O)c1c(C(F)F)nn(C)c1F)C1CC1 [Example 167] | 100%
Cn1nc(C(F)F)c(C(=O)N(Cc2cc(-c3cc(F)c(F)c(F)c3)no2)C2CC2)c1Cl [Example 166] | 90%
Cn1nc(C(F)F)c(C(=O)N(Cc2cc(-c3ccccc3)no2)C2CC2)c1Cl [Example 112] | 95%
CC(C)Oc1ccc(CN(C)C(=O)c2c(C(F)F)nn(C)c2F)cn1 [Example 102] | 70%
Cn1nc(C(F)F)c(C(=O)N(Cc2cc(C(F)(F)F)nc3ccccc23)C2CC2)c1Cl [Example 160] | 90%
Cn1nc(C(F)F)c(C(=O)N(Cc2cccs2)C2CC2)c1Cl [Example 31] | 100%
Cn1nc(C(F)F)c(C(=O)N(Cc2ccnc3cc(Cl)cc(Cl)c23)C2CC2)c1Cl [Example 162] | 94%
Cn1nc(C(F)F)c(C(=O)N(Cc2cc(CC(C)(C)C)no2)C2CC2)c1Cl [Example 107] | 80%
Cn1nc(C(F)F)c(C(=O)N(Cc2cc(Cl)nc3ccccc23)C2CC2)c1Cl [Example 139] | 90%
CC(C)N(Cc1cnn(-c2ccc(Cl)cc2)c1)C(=O)c1c(C(F)F)nn(C)c1Cl [Example 151] | 75%
CN(Cc1cc(-c2ccccc2)no1)C(=O)c1c(C(F)F)nn(C)c1F [Example 110] | 100%
Cc1occc1C1(NC(=O)c2c(C(F)F)nn(C)c2Cl)CCCC1 [Example 23] | 100%
Cn1nc(C(F)F)c(C(=O)N(Cc2cc3ccccc3n2-c2ccccc2)C2CC2)c1Cl [Example 156] | 90%
CC(c1cccc2ccsc12)N(C(=O)c1c(C(F)F)nn(C)c1Cl)C1CC1 (stereo not drawn) [Example 92] | 100%
